Assay results published in patent publication US9862746B2, “Compositions and methods relating to hindering DOT1L recruitment by MLL-fusion proteins” (The Regents of the University of Michigan, priority 2013, dated 2018).
Blank lines part the entries; values can stand above or below the molecule they belong to. Where a SMILES comes first, the peptide text is derived from it.

Legend:
AF9 [1] = biological target: T1, AF9 (Homo sapiens, UniProt P42568); assay: SPR competitive binding assay of small molecules, AF9-DOT1L; set-up: against AF9(497-568) and ENL (489-559) proteins running different tested concentrations over CM5 chip; GB1 (pGB1-LIC vector); made in house; host or cells: Escherichia coli BL21 (DE3)
T1 sequence (P42568 497-568): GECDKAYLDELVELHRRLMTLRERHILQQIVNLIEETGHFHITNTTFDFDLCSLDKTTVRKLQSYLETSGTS
From the text: Several secondary assays have already been developed to support hit confirmation and the hit-to-probe optimization process. The established and optimized SPR-based competitive assay utilizing DOT1L protein (826-1095) immobilized on the CM5 sensor chip was used as a secondary counter screen assay to validate binding of compounds to AF9. […] Both assays gave similar IC50 values.
(§1) To further validate the binding of the confirmed compounds and identify potential promiscuous inhibitors, several secondary assays have been developed to support hit confirmation and the hit-to-probe optimization process. In order to determine that the compounds bind effectively to the target and disrupt protein-protein interaction, a SPR competitive binding assay was used. This assay uses a platform that differs from the FP-based assay where DOT1L recombinant protein (residues […]) is immobilized on a CM5 chip, allowing for testing of the inhibitors for their ability to disrupt AF9-DOT1L protein-protein interactions.

ENL [2] = biological target: T2, ENL (Homo sapiens, UniProt Q03111); assay: SPR competitive binding assay of small molecules, ENL; details: SPR competitive based assay; read-out: ENL IC50 ± SD
T2 construct: against AF9(497-568) and ENL (489-559) proteins running different tested concentrations over CM5 chip; MBP (pMSCG9-LIC vector); made in house; host or cells: Escherichia coli BL21 (DE3)
T2 sequence (Q03111 489-559): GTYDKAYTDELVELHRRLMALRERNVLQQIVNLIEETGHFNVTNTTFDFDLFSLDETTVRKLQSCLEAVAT
From the text: as §1
This class of compounds was also tested for their binding against ENL protein, which is highly homologous with AF9.

ENL [3] = biological target: T2, ENL; assay: Solution competitive SPR assay of peptides, ENL-DOT1L interaction; type: binding; details: CM5 chip with immobilized DOT1L protein, read-out: IC50 ± SD ENL
Method: (§2) Solution competitive SPR based assay was performed to determine the IC50 values of DOT1L peptides. […] Response units (RU) were measured at 15 seconds in the dissociation phase and the specific binding was calculated by subtracting the control surface (Fcl) signal from the surfaces with immobilized Mocr-DOT1L. IC50 values were determined by non-linear least squares analysis using Graph Pad Prism 5.0 software.

AF9 [4] = biological target: T1, AF9; assay: Optimized competitive FP binding assay (N-Flu-DOT1L / AF9); set-up: the recombinant GB1-AF9 protein (residues 497-568); made in house; host or cells: Escherichia coli BL21 (DE3)
AF9 [5] = biological target: T1, AF9; assay: Solution competitive SPR assay of peptides, AF9-DOT1L interaction; type: binding; set-up: against AF9(497-568) and ENL (489-559) proteins running different tested concentrations over CM5 chip; GB1 (pGB1-LIC vector); made in house; host or cells: Escherichia coli BL21 (DE3); details: CM5 chip with immobilized DOT1L protein, read-out: IC50 ± SD AF9
Method: as §2

ENL (489-559) = biological target: T3, ENL (489-559) (Homo sapiens, UniProt Q03111); assay: SPR binding of ENL to immobilized DOT1L constructs; details: DOT1L construct immobilized on CM5 sensor chip, read-out: ENL (489-559) Kd ± SD
T3 construct: ENL protein (residues 489-559); MBP (pMSCG9-LIC vector); made in house; host or cells: Escherichia coli BL21 (DE3)
T3 sequence (Q03111 489-559): T2 sequence (Q03111 489-559)
From the text: (§3) AF9 and ENL are two of the most common MLL fusion proteins (see, e.g., Daser A, Rabbitts T H (2004) Genes & development 18: 965-974) and belong to the YEATS protein family (see, e.g., Schulze J M, et al., (2009) Biochem Cell Biol 87: 65-75). Both of these two proteins consist of N-terminal YEATS domain and a C-terminal hydrophobic domain (see, e.g., Zhang W, et al., (2007) J Clin Invest 117: 773-783). AF9 and ENL shared high homology in the C-terminal domain and it had been shown that through this domain AF9/ENL are involved in the PPI which is crucial for MLL leukemia transformation (see, e.g., Dobson C L, et al., (1999) Embo J 18: 3564-3574; Mueller D, et al., (2007) Blood 110: 4445-4454; Yokoyama A, et al., (2010) Cancer cell 17: 198-212). The interaction of AF9 or ENL with DOT1L has been reported previously by co-immunoprecipitation and yeast 2-hybrid studies (see, e.g., Biswas D, et al., (2011) PNAS 108: 15751-15756; Yokoyama A, et al., (2010) Cancer cell 17: 198-212; Zhang W, et al., (2006) J Biol Chem 281: 18059-18068; Zhang W, et al., (2007) J Clin Invest 117: 773-783; Mueller D, et al., (2007) Blood 110: 4445-4454). However, there is a lack of detailed biochemical and biophysical characterization of this interaction. To understand the molecular basis of DOT1L interaction with MLL-fusion proteins, these PPIs were analyzed using surface plasma resonance (SPR). An SPR assay was developed to quantify the binding affinity between full length DOT1L protein and MLL-fusion proteins. For that purpose, the flag-tagged full length DOT1L protein was transiently transfected in HEK 293 cells and after 48 hours transfection the flag-tagged DOT1L protein was captured from the HEK 293 whole cell lysate on an anti-flag antibody-coated biosensor chip (FIG. 1B and FIG. 14). The recombinant C-terminal domain from human AF9 (residues 497-568) and the corresponding segment from ENL protein (residues 489-559) were cloned, expressed and purified for the biochemical binding studies (FIG. 1A). […] For the first time these studies quantitatively determined the binding affinity of DOT1L to AF9 and ENL and confirmed that DOT1L directly interacts with AF9 and ENL and has about six folds higher affinity against AF9 in comparison with ENL.
(§4) Surface Plasmon Resonance (SPR) binding studies—All SPR based experiments were performed on a BIAcore 2000 (BIAcore, GE Healthcare) instrument. Different tested DOT1L recombinant proteins were immobilized on a CM5 sensor chip by standard EDC/NHS coupling chemistry followed by ethanolamine deactivation of the surfaces. For immobilization of full length Flag-DOT1L protein, anti-Flag antibody (Sigma, Anti-FLAG M2) was immobilized on CM5 chip by the same amine coupling chemistry. HEK293 whole cells lysate with overexpressed Flag-DOT1L at 2.4 μg/l total protein concentration was injected over the Flag antibody surface, followed by injecting of AF9 and ENL in different concentrations. […] The Fcl surface was used as a control surface and was treated in the same manner as the active surfaces but in the absence of immobilized protein. Binding parameters, kon, koff and Kd were calculated by simultaneous non-linear regression using BIAEvaluation software.

AF9 (497-568) = biological target: T4, AF9 (497-568) (Homo sapiens, UniProt P42568); assay: SPR binding of AF9 to immobilized DOT1L constructs; details: DOT1L construct immobilized on CM5 sensor chip, read-out: AF9 (497-568) Kd ± SD
T4 construct: human AF9 (residues 497-568); GB1 (pGB1-LIC vector); made in house; host or cells: Escherichia coli BL21 (DE3)
T4 sequence (P42568 497-568): T1 sequence (P42568 497-568)
From the text: as §3, §4

[6] = SPR competitive, read-out: IC50, inhibition of AF9-DOT1L interaction
[7] = SPR competitive based assay, read-out: AF9 IC50 ± SD

Molecule: O=c1c(O)cccc2cc(O)c(O)c(O)c12 [CCG-38505]
IC50 (AF9 [1]; [6]): 5720 nM

Molecule: O=C(c1cc(O)c(O)c(O)c1)c1ccc(O)c(O)c1O [CCG-208095]
IC50 (AF9 [1]; [6]): 6270 nM

Molecule: Cc1ccc(S(=O)(=O)N2c3ccccc3NC3=C(C(=O)CC(C)(C)C3)C2c2ccco2)cc1 (stereo not shown) [Compound 41]
IC50 (ENL [2]): 33200 ± 8700 nM | IC50 (AF9 [1]; [7]): 46400 ± 12400 nM

Molecule: CC1(C)CC(=O)C2=C(C1)Nc1ccccc1N(S(C)(=O)=O)C2c1cccs1 (stereo not shown) [Compound 51]
IC50 (ENL [2]): > 200000 nM | IC50 (AF9 [1]; [7]): > 200000 nM | IC50 (AF9 [1]; [6]): > 200000 nM

Molecule: Cc1ccc(C)c(S(=O)(=O)N2c3ccccc3NC3=C(C(=O)CCC3)C2c2cccs2)c1 (stereo not shown) [Compound 52]
IC50 (ENL [2]): 25100 ± 2500 nM | IC50 (AF9 [1]; [7]): 43100 ± 800 nM

Molecule: CC[C@H](C)[C@H](NC(=O)[C@H](CO)NC(=O)[C@H](C)NC(=O)[C@@H]1CCCN1C(=O)[C@H](CC(C)C)NC(C)=O)C(=O)N1CCC[C@H]1C(=O)N[C@@H](CC(C)C)C(=O)N[C@@H](CO)C(=O)N[C@H](C(=O)N[C@H](C(N)=O)C(C)C)[C@@H](C)O [Compound I867A] (Ac-LPASIPLSTV-NH2)
IC50 (ENL [3]): > 200000 nM

Molecule: CC[C@H](C)[C@H](NC(=O)[C@@H]1CCCN1C(=O)[C@H](CC(C)C)NC(C)=O)C(=O)N[C@@H](CO)C(=O)N[C@@H](C)C(=O)N1CCC[C@H]1C(=O)N[C@@H](CC(C)C)C(=O)N[C@@H](CO)C(=O)N[C@H](C(=O)N[C@H](C(N)=O)C(C)C)[C@@H](C)O [Compound I869A] (Ac-LPISAPLSTV-NH2)
Ki (AF9 [4]): > 100000 nM | IC50 (ENL [3]): > 200000 nM | IC50 (AF9 [5]): > 200000 nM

Molecule: CC[C@H](C)[C@H](NC(=O)[C@@H]1CCCN1C(=O)[C@H](CC(C)C)NC(C)=O)C(=O)N[C@@H](CO)C(=O)N[C@H](C(=O)N1CCC[C@H]1C(=O)N[C@@H](CC(C)C)C(=O)N[C@@H](CO)C(=O)N[C@@H](C)C(=O)N[C@H](C(N)=O)C(C)C)[C@@H](C)CC [Compound T873A] (Ac-LPISIPLSAV-NH2)
Ki (AF9 [4]): 203 nM

Molecule: DOT1L (1-1537): Flag-tagged full length human DOT1L protein
Kd (ENL (489-559)): 206 ± 80 nM | Kd (AF9 (497-568)): 33 ± 4 nM

B2: DOT1L (826-937): recombinant truncated DOT1L construct (protein)
chain: SPQDPRPLSPGALQLAGEKSSEKGLRERAYGSSGELITSLPISIPLSTVQPNKLPVSIPLASVVLPSRAERARSTPSPVLQPRDPSSTLEKQIGANAHGAGSRSLALAPAGF
Kd (ENL (489-559)): 81 ± 6 nM | Kd (AF9 (497-568)): 78 ± 15 nM

More lines, now with the values ahead:

Kd (ENL (489-559)): 90 nM | Kd (AF9 (497-568)): 42 nM
B1: DOT1L (854-925): recombinant truncated DOT1L construct, 72 amino acids (protein)
chain: AYGSSGELITSLPISIPLSTVQPNKLPVSIPLASVVLPSRAERARSTPSPVLQPRDPSSTLEKQIGANAHGA

Kd (ENL (489-559)): 238 nM | Kd (AF9 (497-568)): 111 nM
B3: DOT1L (826-1095): recombinant DOT1L construct (protein)
chain: SPQDPRPLSPGALQLAGEKSSEKGLRERAYGSSGELITSLPISIPLSTVQPNKLPVSIPLASVVLPSRAERARSTPSPVLQPRDPSSTLEKQIGANAHGAGSRSLALAPAGFSYAGSVAISGALAGSPASLTPGAEPATLDESSSSGSLFATVGSRSSTPQHPLLLAQPRNSLPASPAHQLSSSPRLGGAAQGPLPEASKGDLPSDSGFSDPESEAKRRIVFTITTGAGSAKQSPSSKHSPLTASARGDCVPSHGQDSRRRGRRKRASAG

Kd (ENL (489-559)): 6220 nM | Kd (AF9 (497-568)): 1820 nM
B4: DOT1L (925-1095): recombinant truncated DOT1L construct (protein)
chain: AGSRSLALAPAGFSYAGSVAISGALAGSPASLTPGAEPATLDESSSSGSLFATVGSRSSTPQHPLLLAQPRNSLPASPAHQLSSSPRLGGAAQGPLPEASKGDLPSDSGFSDPESEAKRRIVFTITTGAGSAKQSPSSKHSPLTASARGDCVPSHGQDSRRRGRRKRASAG

Kd (ENL (489-559)): 122 ± 16 nM | Kd (AF9 (497-568)): 92 ± 8 nM
B5: DOT1L (826-958): recombinant truncated DOT1L construct (protein)
chain: SPQDPRPLSPGALQLAGEKSSEKGLRERAYGSSGELITSLPISIPLSTVQPNKLPVSIPLASVVLPSRAERARSTPSPVLQPRDPSSTLEKQIGANAHGAGSRSLALAPAGFSYAGSVAISGALAGSPASLTP

Kd (ENL (489-559)): 148 ± 14 nM | Kd (AF9 (497-568)): 135 ± 4 nM
B6: DOT1L (854-1095): recombinant truncated DOT1L construct (protein)
chain: AYGSSGELITSLPISIPLSTVQPNKLPVSIPLASVVLPSRAERARSTPSPVLQPRDPSSTLEKQIGANAHGAGSRSLALAPAGFSYAGSVAISGALAGSPASLTPGAEPATLDESSSSGSLFATVGSRSSTPQHPLLLAQPRNSLPASPAHQLSSSPRLGGAAQGPLPEASKGDLPSDSGFSDPESEAKRRIVFTITTGAGSAKQSPSSKHSPLTASARGDCVPSHGQDSRRRGRRKRASAG
